Measurements from patent US8193189B2, “Quinoxaline derivatives as tyrosine kinase activity inhibitors” (Novartis AG, priority 2007, dated 2012).
pIC50: −log10 of the molar value.

Assays:
Type in all cases: biochemical
GST-JAK2(808-1132) = target: T1, GST-JAK2(808-1132) (Homo sapiens, UniProt O60674); assay: EPK JAK-family kinases profiling assay (Caliper mobility shift), JAK2; conditions: ATP 20 μM
T1 construct: GST-JAK2(808-1132); purchased Invitrogen (Carlsbad, USA) #4288
Procedure, shortened: (§1)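 Turnover was read as substrate/product ratio after mobility-shift capillary-like separation of each reaction, run for 60 min at 30 °C with GST-tagged kinase domain, labelled peptide and ATP, and terminated with EDTA stop buffer.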

GST-TYK2(888-1187) = target: T2, GST-TYK2(888-1187) (Homo sapiens, UniProt P29597); assay: EPK JAK-family kinases profiling assay (Caliper mobility shift), TYK2; conditions: ATP 30 μM, 40 nM kinase
T2 construct: GST-TYK2(888-1187); made in house
T2 sequence (P29597 888-1187): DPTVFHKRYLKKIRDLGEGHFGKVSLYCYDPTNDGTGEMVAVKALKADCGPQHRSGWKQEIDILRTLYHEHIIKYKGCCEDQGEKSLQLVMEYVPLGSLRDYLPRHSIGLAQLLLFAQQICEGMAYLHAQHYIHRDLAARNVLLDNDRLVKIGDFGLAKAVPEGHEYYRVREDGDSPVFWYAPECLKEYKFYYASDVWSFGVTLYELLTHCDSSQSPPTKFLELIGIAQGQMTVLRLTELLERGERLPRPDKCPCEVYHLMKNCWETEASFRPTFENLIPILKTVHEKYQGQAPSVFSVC
Text: All four kinases of the JAK-family kinases were used as purified recombinant GST-fusion proteins, containing the active kinase domains. GST-JAK1(866-1154), GST-JAK3(811-1124), and GST-TYK2(888-1187) were expressed and purified by affinity chromatography at the EPK biology unit. GST-JAK2(808-1132) was purchased from Invitrogen (Carlsbad, USA, #4288).
The kinase assays were based on the Caliper mobility shift assay using the LabChip 3000 systems. This technology is similar to capillary electrophoresis and uses charge driven separation of substrate and product in a microfluidic chip.
All kinase reactions were performed in 384 well microtiter plates in a total reaction volume of 18 μl. The assay plates were prepared with 0.1 μl per well of test compound in the appropriate test concentration, as described under the section “preparation of compound dilutions”. The reactions were started by combining 9 μl of substrate mix (consisting of peptide and ATP) with 9 μl of kinase dilution. The reactions were incubated for 60 minutes at 30° C. and stopped by adding 70 μl of stop buffer (100 mM Hepes, 5% DMSO, 0.1% Coating reagent, 10 mM EDTA, 0.015% Brij 35).
Fluorescently labeled synthetic peptides were used as substrates in all reactions. […] Specific assay conditions are described in Table 1:
The terminated reactions were transferred to the Caliper LabChip 3000 reader and the turnover of each reaction was measured by determining the substrate/product ratio.
Test compounds were dissolved in DMSO (10 mM) and transferred into 1.4 mL flat bottom or V-shaped Matrix tubes carrying a unique 2D matrix chip by individual compound hubs. The numbers of these chips were distinctively linked to the individual compound identification numbers. The stock solutions were stored at −20° C. if not used immediately. For the test procedure the vials were defrosted and identified by a scanner whereby a working sheet was generated that guided the subsequent working steps.
Compound dilutions were made in 96 well plates. This format enabled the assay of maximally 40 individual test compounds at 8 concentrations (single points) including 4 reference compounds. The dilution protocol included the production of pre-dilution plates, master plates and assay plates:
Pre-dilution plates: 96 polypropylene well plates were used as pre-dilution plates. A total of 4 pre-dilution plates were prepared including 10 test compounds each on the plate positions A1-A10, one standard compound at A11 and one DMSO control at A12. All dilution steps were done on a HamiltonSTAR robot.
Master plates: 100 μL of individual compound dilutions including standard compound and controls of the 4 “pre-dilution plates” were transferred into a 384 “master plate” including the following concentrations 1′820, 564, 182, 54.6, 18.2, 5.46, 1.82 and 0.546 μM, respectively in 90% of DMSO.
Assay plates: Identical assay plates were then prepared by pipetting 100 nL each of compound dilutions of the master plates into 384-well “assay plates”. […] The preparation of the master plates were handled by the Matrix PlateMate Plus robot and replication of assay plates by the HummingBird robot.

GST-JAK1(866-1154) = target: T3, GST-JAK1(866-1154) (Homo sapiens, UniProt P23458); assay: EPK JAK-family kinases profiling assay (Caliper mobility shift), JAK1; conditions: ATP 40 μM, 50 nM kinase
T3 construct: GST-JAK1(866-1154); made in house
Procedure, shortened: as §1

T3 sequence (P23458 866-1154): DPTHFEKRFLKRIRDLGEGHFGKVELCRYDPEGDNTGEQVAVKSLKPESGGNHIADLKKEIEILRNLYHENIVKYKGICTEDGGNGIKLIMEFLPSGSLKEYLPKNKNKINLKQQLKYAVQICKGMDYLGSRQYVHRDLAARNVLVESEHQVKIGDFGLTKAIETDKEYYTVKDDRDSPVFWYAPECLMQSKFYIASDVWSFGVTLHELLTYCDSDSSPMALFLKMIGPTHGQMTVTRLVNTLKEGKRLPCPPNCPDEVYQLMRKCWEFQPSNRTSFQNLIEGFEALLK
T1 sequence (O60674 808-1132): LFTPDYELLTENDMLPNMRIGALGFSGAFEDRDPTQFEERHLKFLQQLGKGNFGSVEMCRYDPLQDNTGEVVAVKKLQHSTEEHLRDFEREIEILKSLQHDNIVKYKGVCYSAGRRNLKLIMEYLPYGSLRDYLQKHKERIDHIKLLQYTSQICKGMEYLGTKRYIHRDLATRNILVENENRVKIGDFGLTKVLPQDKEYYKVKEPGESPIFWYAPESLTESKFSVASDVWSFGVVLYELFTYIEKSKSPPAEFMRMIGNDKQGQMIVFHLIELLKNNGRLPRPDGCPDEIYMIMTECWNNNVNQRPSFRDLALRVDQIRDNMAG

SMILES	pIC50 (GST-JAK2(808-1132); 1.8 nM kinase)	pIC50 (GST-TYK2(888-1187))	pIC50 (GST-JAK1(866-1154))	pIC50 (GST-JAK2(808-1132); […] kinase)
Fc1cc(-c2cccc3ncc(-c4cnn(C5CCCNC5)c4)nc23)cc(F)c1CN1CCOCC1 (racemic) [Example 160, (rac)-8-(3,5-Difluoro-4-morpholin-4-ylmethyl-phenyl)-2-(1-piperidin-3-yl-1H-pyrazol-4-yl)-quinoxaline]	8.19	6.40	6.44	–
COc1cc(-c2cnc3cccc(-c4ccc(CC(=O)N5CCS(=O)(=O)CC5)cc4)c3n2)cc(OC)c1OC [Example 13, 1-(1,1-Dioxido-thiomorpholin-4-yl)-2-{4-[3-(3,4,5-trimethoxy-phenyl)-quinoxalin-5-yl]-phenyl}-ethanone]	–	6.63	7.57	8.29
CC(=O)N1CCC(n2cc(-c3cnc4cccc(-c5cc(F)c(CN6CCOCC6)c(F)c5)c4n3)cn2)CC1 [Example 121, 1-(4-{4-[8-(3,5-Difluoro-4-morpholin-4-ylmethyl-phenyl)-quinoxalin-2-yl]-pyrazol-1-yl}-piperidin-1-yl)-ethanone]	8.42	6.64	6.70	–
Cc1cc(CN2CCOCC2)ccc1-c1cccc2ncc(-c3cnn(C4CCNCC4)c3)nc12 [Example 147, 8-(2-Methyl-4-morpholin-4-ylmethyl-phenyl)-2-(1-piperidin-4-yl-1H-pyrazol-4-yl)-quinoxaline]	7.01	6.00	5.82	–
Cc1nn(C2CCNCC2)c(C)c1-c1cnc2cccc(-c3cc(F)c(CN4CCOCC4)c(F)c3)c2n1 [Example 155, 8-(3,5-Difluoro-4-morpholin-4-ylmethyl-phenyl)-2-(3,5-dimethyl-1-piperidin-4-yl-1H-pyrazol-4-yl)-quinoxaline]	7.20	5.12	5.47	–
Cc1nn(C2CCNCC2)c(C)c1-c1cnc2cccc(-c3ccc(CN4CCOCC4)cc3)c2n1 [Example 156, 2-(3,5-Dimethyl-1-piperidin-4-yl-1H-pyrazol-4-yl)-8-(4-morpholin-4-ylmethyl-phenyl)-quinoxaline]	6.02	< 5.00	< 5.00	–
Cc1nn(C2CCNCC2)c(C)c1-c1cnc2cccc(-c3ccc(CN4CCS(=O)(=O)CC4)cc3)c2n1 [Example 157, 2-(3,5-Dimethyl-1-piperidin-4-yl-1H-pyrazol-4-yl)-8-[4-(1,1-dioxido-thiomorpholin-4-ylmethyl)-phenyl]-quinoxaline]	6.85	5.19	5.44	–
Cc1cc(-c2cccc3ncc(-c4c(C)nn(C5CCNCC5)c4C)nc23)ccc1CN1CCOCC1 [Example 158, 2-(3,5-Dimethyl-1-piperidin-4-yl-1H-pyrazol-4-yl)-8-(3-methyl-4-morpholin-4-ylmethyl-phenyl)-quinoxaline]	6.19	< 5.00	< 5.00	–
COc1ccc(-c2cnc3cccc(-c4ccc(CN5CCS(=O)(=O)CC5)cc4)c3n2)cc1N1CCN(C)CC1 [Example 161, 8-[4-(1,1-Dioxido-thiomorpholin-4-ylmethyl)-phenyl]-2-[4-methoxy-3-(4-methyl-piperazin-1-yl)-phenyl]-quinoxaline]	> 8.52	6.32	6.96	–
COc1ccc(-c2cnc3cccc(-c4cc(F)c(CN5CCOCC5)c(F)c4)c3n2)cc1N1CCN(C)CC1 [Example 162, 8-(3,5-Difluoro-4-morpholin-4-ylmethyl-phenyl)-2-[4-methoxy-3-(4-methyl-piperazin-1-yl)-phenyl]-quinoxaline]	8.24	6.44	7.16	–
COc1ccc(-c2cnc3cccc(-c4cc(F)c(CN5CCS(=O)(=O)CC5)c(F)c4)c3n2)cc1N1CCN(C)CC1 [Example 163, 8-[4-(1,1-Dioxido-thiomorpholin-4-ylmethyl)-3,5-difluoro-phenyl]-2-[4-methoxy-3-(4-methyl-piperazin-1-yl)-phenyl]-quinoxaline]	> 8.52	7.06	7.11	–
CN1CCN(C(=O)c2cccc(-c3cnc4cccc(-c5cc(F)c(CN6CCOCC6)c(F)c5)c4n3)c2)CC1 [Example 164, {3-[8-(3,5-Difluoro-4-morpholin-4-ylmethyl-phenyl)-quinoxalin-2-yl]-phenyl}-(4-methyl-piperazin-1-yl)-methanone]	7.30	5.70	6.52	–
CN1CCN(C(=O)c2cccc(-c3cnc4cccc(-c5ccc(CN6CCS(=O)(=O)CC6)cc5)c4n3)c2)CC1 [Example 165, (3-{8-[4-(1,1-Dioxido-thiomorpholin-4-ylmethyl)-phenyl]-quinoxalin-2-yl}-phenyl)-(4-methyl-piperazin-1-yl)-methanone]	7.13	5.92	6.80	–
CN1CCN(C(=O)c2cccc(-c3cnc4cccc(-c5cc(F)c(CN6CCS(=O)(=O)CC6)c(F)c5)c4n3)c2)CC1 [Example 166, (3-{8-[4-(1,1-Dioxido-thiomorpholin-4-ylmethyl)-3,5-difluoro-phenyl]-quinoxalin-2-yl}-phenyl)-(4-methyl-piperazin-1-yl)-methanone]	7.96	6.57	7.15	–
CN1CCN(C(=O)c2cc(-c3cnc4cccc(-c5cc(F)c(CN6CCOCC6)c(F)c5)c4n3)cn2C)CC1 [Example 167, {4-[8-(3,5-Difluoro-4-morpholin-4-ylmethyl-phenyl)-quinoxalin-2-yl]-1-methyl-1H-pyrrol-2-yl}-(4-methyl-piperazin-1-yl)-methanone]	8.09	6.74	7.28	–
CN1CCN(C(=O)c2cc(-c3cnc4cccc(-c5cc(F)c(CN6CCS(=O)(=O)CC6)c(F)c5)c4n3)cn2C)CC1 [Example 168, (4-{8-[4-(1,1-Dioxido-thiomorpholin-4-ylmethyl)-3,5-difluoro-phenyl]-quinoxalin-2-yl}-1-methyl-1H-pyrrol-2-yl)-(4-methyl-piperazin-1-yl)-methanone]	> 8.52	7.52	7.80	–
O=S1(=O)CCN(Cc2c(F)cc(-c3cccc4ncc(-c5cccc(N6CCNCC6)c5)nc34)cc2F)CC1 [Example 169, 8-[4-(1,1-Dioxido-thiomorpholin-4-ylmethyl)-3,5-difluoro-phenyl]-2-(3-piperazin-1-yl-phenyl)-quinoxaline]	> 8.52	7.59	7.77	–
CC(C)(O)C#Cc1cnc2cccc(-c3cc(F)c(CN4CCS(=O)(=O)CC4)c(F)c3)c2n1 [Example 171, 4-{8-[4-(1,1-Dioxido-thiomorpholin-4-ylmethyl)-3,5-difluoro-phenyl]-quinoxalin-2-yl}-2-methyl-but-3-yn-2-ol]	7.15	5.70	6.36	–
